In patent US7534809B2, “Phospho-indoles as HIV inhibitors” (priority 2004, dated 2009):
Like-named read-outs stand apart in the source and are kept apart here.

Columns and labels:
HIV BH-10 WT = assay: Cell-based assay using BH-10 cells, wild type
HIV mutant strain Y181C = assay: Cell-based assay using BH-10 cells, Y181C mutant
Method: (§1) In a typical embodiment, the NNRTIs display an EC50 in a mutant HIV strain of less than approximately 5, 2.5, 1 or 0.1 μM concentration. The degree of cross-resistance against a drug resistant strain of HIV is measured by assessing the EC50 of the desired oxo-pyrimidine compound in the target mutated, i.e., drug resistant, virus.
(§2) The degree of cross-resistance against a drug resistant strain of HIV can easily be measured by assessing the EC50 of the desired indole in the target mutated i.e., drug resistant, virus.

[1] = system: HIV mutant strain K103N/Y181C; assay: Cell-based assay using BH-10 cells, K103N/Y181C mutant
Method: as §1, §2

[2] = Human immunodeficiency virus 1, read-out: EC50 WT///B, BH-10 cells, wild type
[3] = Human immunodeficiency virus 1, read-out: EC50 Y181C, BH-10 cells, Y181C mutant
[4] = Human immunodeficiency virus 1, read-out: EC50 K103N/Y181C, BH-10 cells, K103N/Y181C mutant
[5] = BH-10 cells, wild type, read-out: EC50 WT///B
[6] = BH-10 cells, Y181C mutant, read-out: EC50 Y181C
[7] = BH-10 cells, K103N/Y181C mutant, read-out: EC50 K103N/Y181C

SMILES | EC50 (HIV BH-10 WT; [2]) [nM] | EC50 (HIV mutant strain Y181C; [3]) [nM] | EC50 [1, 4] [nM] | EC50 (HIV BH-10 WT; [5]) [nM] | EC50 (HIV mutant strain Y181C; [6]) [nM] | EC50 [1, 7] [nM]
COP(=O)(c1ccc(C)c(C)c1)c1c(C(N)=O)[nH]c2ccc(Cl)cc12 (stereo not drawn) [Compound 7ae] | 0.5 | 11.1 | 1.1 |  |  | 
COP(=O)(c1cc(F)cc(F)c1)c1c(C(=O)NCc2cncn2C)[nH]c2ccc(Cl)cc12 (stereo not drawn) [Compound 18aae] | 2.6 | 10.5 | 2.7 |  |  | 
COP(=O)(c1cc(C)cc(C)c1)c1c(C(=O)NCc2ccc[n+]([O-])c2)[nH]c2ccc(Cl)c(F)c12 (stereo not drawn) [Compound 22j] |  |  |  | 6.8 | 9.9 | 6
COP(=O)(c1cc(C)cc(C)c1)c1c(C(=O)NCc2ccncn2)[nH]c2ccc(Cl)cc12 (stereo not drawn) [Compound 18l] | 1.7 | 2.5 | 2.2 |  |  | 
CCOP(=O)(c1cccs1)c1c(C(N)=O)[nH]c2ccc(Cl)cc12 (stereo not drawn) [Compound 51] | 2.2 | 52.9 | 65.6 |  |  | 
COP(=O)(c1cccc(C(C)(C)C)c1)c1c(C(N)=O)[nH]c2ccc(Cl)cc12 (stereo not drawn) [Compound 7ar] | 2.9 | 19.3 | 30.6 |  |  | 
COP(=O)(c1cccc(Cl)c1)c1c(C(N)=O)[nH]c2ccc(Cl)cc12 (stereo not drawn) [Compound 7c] | 0.4 | 8.7 | 2.6 |  |  | 
COP(=O)(c1cc(F)cc(F)c1)c1c(C(=O)NCc2ccc(C#N)cc2)[nH]c2ccc(Cl)cc12 (stereo not drawn) [Compound 18q] | 3 | 35.7 | 54.2 |  |  | 
COP(=O)(c1cccc(-c2ccccc2)c1)c1c(C(N)=O)[nH]c2ccc(Cl)cc12 (stereo not drawn) [Compound 7i] | 9.9 | 398 | 380 |  |  | 
COP(=O)(c1cc(C)cc(C)c1)c1c(C(N)=O)[nH]c2ccc(Cl)c(F)c12 (stereo not drawn) [Compound 7z] | 2.1 | 8.5 | 2.2 |  |  | 
CCCc1cccc(P(=O)(OC)c2c(C(N)=O)[nH]c3ccc(Cl)cc23)c1 (stereo not drawn) [Compound 7x] | 3 | 13.8 | 8.7 |  |  | 
COP(=O)(c1cc(F)cc(F)c1)c1c(C(=O)NCc2ccccc2F)[nH]c2ccc(Cl)cc12 (stereo not drawn) [Compound 18aad] | 11 | 38.2 | 12.5 |  |  | 
COP(=O)(c1cccc(CF)c1)c1c(C(N)=O)[nH]c2ccc(Cl)cc12 (stereo not drawn) [Compound 7h] | 0.9 | 6.1 | 2.5 |  |  | 
CCOP(=O)(c1cc(C)ccc1C)c1c(C(N)=O)[nH]c2ccc(Cl)cc12 (stereo not drawn) [Compound 6aa] |  |  |  | 0.2 | 1.9 | 1.6
COP(=O)(c1cc(C)cc(C)c1)c1c(C(=O)NCc2cncnc2)[nH]c2ccc(Cl)cc12 (stereo not drawn) [Compound 18j] |  |  |  | 3.6 | 5.1 | 1.9
COP(=O)(c1cc(C(F)(F)F)cc(C(F)(F)F)c1)c1c(C(N)=O)[nH]c2ccc(Cl)cc12 (stereo not drawn) [Compound 7s] | 12.8 | 68.3 | 47.9 |  |  | 
COP(=O)(c1ccccc1)c1c(C(=O)N[C@H](C(N)=O)c2ccccc2)[nH]c2ccc(Cl)cc12 (stereo partly drawn) [Compound 18aao] | 38.1 | 287 | 118 |  |  | 
COP(=O)(c1cc(C)cc(C)c1)c1c(C(=O)NCc2cccnc2)[nH]c2ccc(Cl)c(F)c12 (stereo not drawn) [Compound 18aan] | 15 | 304 | 600 |  |  | 
CCOP(=O)(c1cccc(C)c1)c1c(C(N)=O)[nH]c2ccc(Cl)cc12 (stereo not drawn) [Compound 6ab] | 0.5 | 34.8 | 19.6 |  |  | 
COP(=O)(c1cc(C)cc(C)c1)c1c(C(=O)NCc2ccccc2F)[nH]c2ccc(Cl)cc12 (stereo not drawn) [Compound 18az] | 3 | 16.7 | 8.5 |  |  | 
COP(=O)(c1ccsc1)c1c(C(N)=O)[nH]c2ccc(Cl)cc12 (stereo not drawn) [Compound 52a] | 0.5 | 1.5 | 6.3 |  |  | 
CCc1cccc(P(=O)(OC)c2c(C(N)=O)[nH]c3ccc(Cl)cc23)c1 (stereo not drawn) [Compound 7d] | 0.6 | 6.5 | 1.4 |  |  | 
CCc1cc(C)cc(P(=O)(OC)c2c(C(=O)NCc3ccc[n+]([O-])c3)[nH]c3ccc(Cl)cc23)c1 (stereo not drawn) [Compound 22h] | 1.6 | 5.8 | 3.6 |  |  | 
COP(=O)(c1cccc(C(C)C)c1)c1c(C(=O)NCc2ccncc2)[nH]c2ccc(Cl)cc12 (stereo not drawn) [Compound 18aq] | 12 | 31.7 | 18.6 |  |  | 
COP(=O)(c1ccccc1)c1c(C(=O)NCc2cncn2C)[nH]c2ccc(Cl)cc12 (stereo not drawn) [Compound 18as] | 0.3 | 9.9 | 0.6 |  |  | 
COP(=O)(c1cccc(C(C)C)c1)c1c(C(N)=O)[nH]c2ccc(Cl)cc12 (stereo not drawn) [Compound 7g] | 2.5 | 8.8 | 7.7 |  |  | 
